Molecular target: T1, Human Neutrophil Elastase (Homo sapiens, UniProt P08246)
T1 construct: Human Neutrophil Elastase (FINE) purified from serum (Calbiochem art. 324681); purchased Calbiochem 324681; host or cells: natural enzyme, purified from serum
T1 sequence (P08246 30-267): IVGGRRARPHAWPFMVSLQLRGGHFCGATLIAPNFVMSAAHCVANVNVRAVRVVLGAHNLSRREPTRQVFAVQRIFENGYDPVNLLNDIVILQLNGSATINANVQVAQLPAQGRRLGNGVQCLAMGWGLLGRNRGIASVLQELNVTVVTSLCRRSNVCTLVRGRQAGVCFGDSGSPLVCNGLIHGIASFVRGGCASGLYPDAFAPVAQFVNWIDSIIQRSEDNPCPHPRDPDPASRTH
Assay: Human Neutrophil Elastase Quenched-FRET Assay
Type: biochemical
Conditions: HNE purified from serum; substrate MeOSuc-AAPV-AMC; 15 min preincubation, 30 min incubation at room temperature; read-out: Inhibition of Human Neutrophil Elastase IC50
Procedure: Human Neutrophil Elastase Quenched-FRET Assay
HNE was stored in 50 mM NaOAc, 200 mM NaCl, pH 5.5 with added 30% glycerol at −20° C. […] The substrate was stored in DMSO at −20° C. […] The assay buffer constitution was: 100 mM Tris (pH 7.5) and 500 mM NaCl. The enzyme and the compounds were incubated at room temperature for 15 minutes. Then 30 μl substrate in assay buffer was added. The assay was stopped after 30 minutes incubation at room temperature by adding 60 μl stop solution (140 mM acetic acid, 200 mM sodium monochloroacetate, 60 mM sodium acetate, pH 4.3).

| SMILES | IC50 |
| --- | --- |
| Cc1c(-c2ccccc2)cc(C(=O)NCc2ccc(S(C)(=O)=O)cc2)c(=O)n1-c1cccc(C(F)(F)F)c1 [Example 1, 6-Methyl-N-[4-(methylsulfonyl)benzyl]-2-oxo-5-phenyl-1-[3-(trifluoromethyl)phenyl]-1,2-dihydropyridine-3-carboxamide] | 47 nM |
| Cc1c(-c2ccoc2)cc(C(=O)NCc2ccc(S(C)(=O)=O)cc2)c(=O)n1-c1cccc(C(F)(F)F)c1 [Example 2, 5-Furan-3-yl-6-methyl-2-oxo-1-(3-trifluoromethyl-phenyl)-1,2-dihydro-pyridine-3-carboxylic acid 4-methanesulfonyl-benzylamide] | 46 nM |
| COc1ncc(-c2cc(C(=O)NCc3ccc(S(C)(=O)=O)cc3)c(=O)n(-c3cccc(C(F)(F)F)c3)c2C)cn1 [Example 5, 5-(2-Methoxypyrimidin-5-yl)-6-methyl-N-[4-(methylsulfonyl)benzyl]-2-oxo-1-[3-(trifluoromethyl)phenyl]-1,2-dihydropyridine-3-carboxamide] | 48 nM |
| Cc1noc(C)c1-c1cc(C(=O)NCc2ccc(S(=O)(=O)C(C)C)cc2)c(=O)n(-c2cccc(C(F)(F)F)c2)c1C [Example 32, 5-(3,5-Dimethylisoxazol-4-yl)-N-[4-(isopropylsulfonyl)benzyl]-6-methyl-2-oxo-1-[3-(trifluoromethyl)phenyl]-1,2-dihydropyridine-3-carboxamide] | 3 nM |
| Cc1nnc(-c2cc(C(=O)NCc3ccc(S(=O)(=O)C4CC4)cc3)c(=O)n(-c3cccc(C(F)(F)F)c3)c2C)o1 [Example 46, N-[4-(Cyclopropylsulfonyl)benzyl]-6-methyl-5-(5-methyl-1,3,4-oxadiazol-2-yl)-2-oxo-1-[3-(trifluoromethyl)phenyl]-1,2-dihydropyridine-3-carboxamide] | 7 nM |
| Cc1cc(CNC(=O)c2cc(-c3ccnn3C)c(C)n(-c3cccc(C(F)(F)F)c3)c2=O)on1 [Example 91, 6-Methyl-5-(2-methyl-2H-pyrazol-3-yl)-2-oxo-1-(3-trifluoromethyl-phenyl)-1,2-dihydro-pyridine-3-carboxylic acid (3-methyl-isoxazol-5-ylmethyl)-amide] | 12 nM |

— patent US8501784B2, “2-pyridone derivatives as neutrophil elastase inhibitors and their use” (Astrazeneca AB, priority 2003, dated 2013)
